Laboratory results from US10093716B2, “Methods for treating cancer” (UCL BUSINESS PLC, priority 2013, dated 2018).

B1: TRAIL: recombinant iz-TRAIL produced in E. coli, LPS-free after purification (protein)
chain: MAMMEVQGGPSLGQTCVLIVIFTVLLQSLCVAVTYVYFTNELKQMQDKYSKSGIACFLKEDDSYWDPNDEESMNSPCWQVKWQLRQLVRKMILRTSEETISTVQEKQQNISPLVRERGPQRVAAHITGTRGRSNTLSSPNSKNEKALGRKINSWESSRSGHSFLSNLHLRNGELVIHEKGFYYIYSQTYFRFQEEIKENTKNDKQMVQYIYKYTSYPDPILLMKSARNSCWSKDAEYGLYSIYQGGIFELKENDRIFVSVTNEHLIDMDHEASFFGAFLVG

Experiments:
[1] = tested on: A549-luc cells; assay: Experimental lung metastasis model, A549-luc cells injected into tail vein; type: in vivo, SCID beige mice; details: 0.5 mg/mouse i.p., 3× per week starting 1 day after cell injection; bioluminescence after 2 weeks; FIG. 3D
Procedure: FIGS. 3A-3D| KRAS-mutated cells require autocrine TRAIL-R2-mediated migration for metastasis formation. FIG. 3A, 2×10^6 A549-luc cells infected with shTRAIL-R2 or control vector were injected into the tail vein of SCID beige mice. Metastatic burden in the lungs was detected after three weeks by quantification of bioluminescence (Photons/second). Three representative mice from each group are shown (n=9/group). FIG. 3B, FIG. 3C Five lungs from each group that were closest to the average value of the respective group in the H&E quantification were subjected to further Ki67 and TUNEL stainings and quantified as Ki67 and TUNEL positive area within tumor nodules, respectively. Representative images are shown. FIG. 3D, A549-luc parental cells were injected as in FIG. 3A, mice were treated with Vehicle (PBS) or 0.5 mg TRAIL-R2-Fc/mouse starting the next day, 3× per week.
Bioluminescence was determined after 2 weeks, representative mice are shown (n=8/group). Arrows indicate Ki67/TUNEL-positive cells. Dots represent individual lungs. Values are means+/−SEM; ns, not significant; * P<0.05 Student's t-test.
Animal Models. […] Photons per second (Photon Flux) were quantified using the Ivis Spectrum software. […] After one week, tumours were palpable and their size was measured by caliper. […]

[2] = tested on: A549 cells; assay: xCELLigence migration assay, A549; type: cell-based, human; details: 100 μg/ml recombinant receptor-Fc protein during migration, FIG. 1F
Procedure: siRNA-mediated knockdown. Knockdown experiments were performed by transient transfection of RISC-free control siRNA, siRNA pools or single sequences (Dharmacon) to silence the indicated proteins using Dharmafect I (Dharmacon) following the instruction manual. All cell lines were incubated for 48 h to achieve sufficient knockdown.
Migration assays. Migration assays were performed using the xCELLigence System (Roche) according to manufacturer's instructions. See Supplementary Methods for detailed description.
Migration assays were performed using the xCELLigence System (Roche) that uses specially designed microtiter plates containing gold microelectrodes to measure electrical impedance of cells adhering to electrodes in real time. Increased impedance of background control wells was subtracted from all other values, the increase in electrical impedance/migration of control siRNA-transfected/control vector-infected cells was then defined as 100% migration and relative migration of all other transfected samples was calculated as compared to control-transfected cells, accordingly. Migration plates (CIM 16) are based on the Boyden chamber principle, the lower surface of the filter is covered with microelectrodes measuring cells that have migrated through the pores and adhere to the lower surface of the filter in real time. […]

[3] = tested on: Rac1; assay: Rac1 pulldown assay (GTP-bound Rac1, PAK1-beads), isogenic DLD-1 and DKO4; type: cell-based, human; details: isogenic KRAS-mutated DLD-1 versus KRAS-WT DKO4, iz-TRAIL 100 ng/ml; FIG. 7E
Procedure: FIGS. 7A-7F| Autocrine migration is independent of the DISC but requires Rac1. FIG. 7A, FADD-deficient clones 10, 41 and 50 were transfected with the indicated siRNAs and subjected to migration assays. FIG. 7B, Control vector-infected or shTRAIL-R2-infected A549 cells were fixed and stained using Texas red-coupled phalloidin and DAPI. Representative confocal images are shown (×400).c, A549 cells were treated with DMSO, PD98059 (10 μM), PIK75 (100 nM) or NSC23766 (100 μM) and subjected to migration assays. FIG. 7D, A549 cells were transfected with the indicated siRNAs and subjected to migration assays. FIG. 7E, Isogenic DLD-1 and DKO4 cells were treated with iz-TRAIL (100 ng/ml) for the indicated times and then subjected to pulldown of GTP-bound Rac1 using PAK1-beads (Millipore-Rac1 activation kit). FIG. 7F, KRAS-WT DKO4 cells were transfected with the indicated siRNAs and prior to migration treated with vehicle (H2O) or 10 μM Y27632. Representative Western blots are shown.
2.5×10^6 cells were seeded into 10 cm dishes. The next day, cells were incubated with and without 100 ng/ml iz-TRAIL. Cell lysis and Rac1 pulldown was performed using a Rac1-pulldown kit (Millipore) according to the manufacturer's instructions. Proteins were separated by SDS-PAGE (NuPAGE) and analyzed by Western blotting.

[4] = tested on: Rac1; assay: Rac1 pulldown assay (GTP-bound Rac1, PAK1-beads), A549; type: cell-based, human; details: A549 cells, iz-TRAIL 100 ng/ml; FIG. 8E
Procedure: FIGS. 8A-8J| Autocrine TRAIL is required for caspase-independent migration and Rac1 activation. FIG. 8A, DLD-1 cells were transfected with the indicated siRNAs and subjected to migration assays. FIG. 8B, A549 cells were treated with DMSO or 10 μM zVAD-fmk and were subsequently subjected to migration assays. FIG. 8C, Dominant negative FADD (dnFADD)-overexpressing DLD-1 cells were transfected with the indicated siRNAs and subjected to migration assays. FIG. 8D, Parental and DLD-1 cells overexpressing dnFADD were treated with 1 μg/ml iz-TRAIL for the indicated times, subsequently lysed and subjected to Western blot analysis. FIG. 8E, A549 cells were treated with iz-TRAIL (100 ng/ml) for the indicated times and subjected to pulldown of GTP-bound Rac1 using PAK1-beads (Millipore-Rac1 activation kit). Cell lysates were subsequently analyzed by Western blotting. FIG. 8F, Control or shTRAIL-R2-infected A549 cells were subjected to pulldown of GTP-bound Rac1 as in FIG. 8E. FIG. 8G, A549 cells were transfected with the indicated siRNAs and subjected to migration assays. FIG. 8H, KRAS-mutated (DLD-1, HCT116) and isogenic KRAS-WT (DKO4, Hkh-2) cell lines were lysed and subjected to Western blotting. FIG. 8I, KRAS-mutated H460 cells were transfected with the indicated siRNAs. […]
2.5×10^6 cells were seeded into 10 cm dishes. […] Proteins were separated by SDS-PAGE (NuPAGE) and analyzed by Western blotting.

| Molecule | metastasis (metastatic burden in lungs, bioluminescence) [1] | migration (normalized to PBS-treated cells) [2] | Rac1 activation (GTP-bound Rac1 pulldown) [3] | Rac1 activation (GTP-bound Rac1 pulldown) [4] |
| --- | --- | --- | --- | --- |
| TRAIL-R2-Fc fusion protein: majority of the extracellular domain of human TRAIL-R2 fused to the Fc portion of human IgG1 (SEQ ID NO: 15); TRAIL-inhibiting | significantly reduced metastasis | suppressed migration to a similar extent |  |  |
| B1 |  |  | only capable of doing so in KRAS-mutated cells | able to activate Rac1 |
